Results published in patent US20140045807A2, “THE USE OF 3-METHOXY-PREGNENOLONE FOR THE PREPARATION OF A DRUG FOR TREATING A TRAUMATIC BRAIN INJURY” (priority 2004, published 2014).

Assays:
[1] = system: spinophilin; assay: Western blot of spinophilin in cortex and hippocampus after CCI; assay type: in vivo, rat; conditions: 10 mg/kg or 20 mg/kg, first injection 2 h post-trauma, day 35, injured cortex and hippocampus and contralaterally
Procedure: FIG. 21: Spinophilin expression, 35 days after TBI, in the left-uninjured and right-injured hemispheres (A: cortex and B: hippocampus) of CCI-injured animals, receiving either vehicle (D0) or MAP4343 (D1: 10 mg/kg and D2: 20 mg/kg), 2 h after injury.
(§1) Samples were analyzed by Western-blot at day 35 post-trauma (D35) to evaluate the effects of MAP4343 on: MAP2 (the target of MAP4343 and a modulator of microtubule function), the post-synaptic markers PSD95 and spinophilin, the pre-synaptic marker synaptophysin, and the axonal growth/integrity marker GAP43.
(§2) Western blot was performed on cortex and hippocampus of TBI-injured animals receiving the first injection of MAP4343 (at 10 mg/kg or 20 mg/kg) or vehicle (sesame oil) 2 h after injury.
(§3) The expression level of various neuronal brain markers of plasticity was measured at day 35 post-trauma by western-blots in the cortex and hippocampus of left uninjured and right injured cerebral hemispheres of CCI traumatized animals receiving either vehicle (sesame oil, CCI-D0) or 3-methoxy-PREG (MAP4343) at 10 mg/kg (CCI-D1) or 20 mg/kg (CCI-D2), with first MAP4343 injection 2 h post-trauma.

[2] = system: CCI traumatized animals; assay: Water Exploration Test (WET) after Controlled Cortical Impact (CCI); assay type: in vivo, rat; parameters: key to Time spent in CZ, Conclusion vs. CCI-D0: ↓ ↓ ↓: decrease of analyzed variable with p < 0.001; ?: stability of analyzed variable; ↑: increase in analyzed variable with p < 0.05; key to Entry number in CZ, Conclusion vs. CCI-D0: ↓: decrease of analyzed variable with p < 0.05; ?: stability of analyzed variable; ↑ ↑: increase in analyzed variable with p < 0.01; conditions: for Entry number in CZ, Mean / Time spent in CZ, Mean: C-D0 = 100
Procedure: Male Sprague-Dawley rats of […] are used. There were 12 animals per group for all in vivo experiments (WET, MRI) except for the CHI injury which requested 17 animals per group because of the post-trauma mortality rate. Each group was then split in two subgroups of 6 individuals for all post-mortem analysis (biochemical, histological and immunohistological analysis.
CCI was performed with an electromagnetic impact device as described (MyNeurolab, St. Louis, Mo.; Brody et al. 2007). Anesthesized rats were subjected to a single right lateral CCI, with the following parameters: impact centered 4.0 mm anterior to lambda and 4.5 mm […] of midline, within the craniotomy of the animal. The impact was set at a velocity of 4 m/s with a sustained depression of 200 ms, using a 5.0 mm tip.
The […] is a rat, the more time it will spend “floating” (null velocity) in the central zone (see Fares-2009).
More precisely, a circular tank (180 cm diameter, 60 cm high) is filled with water maintained at 27° C. to a depth of 40 cm. The water is made opaque by adding black gouache, allowing the VideoTrack system (ViewPoint) to detect the white-coloured rat. This tank is divided into 4 identical quadrants (6,358 cm2 each) using two 180 cm long opaque plastic separators. In each quadrant, one rat is introduced with its head facing the corner between the separator and the tank's wall. It is noteworthy to emphasize that 4 rats can be tested simultaneously using the 4 quadrants. Using the VideoTrack system, we draw two virtual areas: a large one delineates the whole quadrant in which the rat is placed, the so-called Full Quadrant (FQ) and a small one that delineates a central zone (CZ). The CZ, having the same shape as the FQ, measures 2,921 cm2, and is considered to be anxiogenic for animals. Thus, the distance, the number of entries, the time spent, and the velocity profile in the CZ are measured to assess anxiety-like behaviour. In addition, the total distance traveled in the FQ represents an indicator of motor activity. The duration of each trial is 5 minutes.
The effect of 3-methoxy-PREG (MAP4343) on anxiety induced by trauma was analyzed using the WET test.

[3] = system: PSD95; assay: Western blot of PSD95 in cortex and hippocampus after CCI; assay type: in vivo, rat; conditions: 20 mg/kg, first injection 2 h post-trauma, day 35, ipsilateral injured cortex and hippocampus, contralateral cortex
Procedure: FIG. 20: PSD-95 expression, 35 days after TBI, in the left-uninjured and right-injured hemispheres (A: cortex and B: hippocampus) of CCI-injured animals, receiving either vehicle (D0) or MAP4343 (D1: 10 mg/kg and D2:20 mg/kg), 2 h after injury.
as §1, §2, §3

[4] = molecular target: Androgen Receptor (AR) (Rattus norvegicus, UniProt P15207); assay: Radioligand binding assay, AR; conditions: MAP4343 10 μM; 1.5 nM [^3H] Mibolerone; Rat recombinant E. coli
Procedure: Binding affinity of 3-methoxy-PREG (MAP4343) for receptors of steroid hormones was evaluated using radioligand binding assays.

[5] = molecular target: MAP2 (Homo sapiens, UniProt P11137); assay: Binding (affinity) by displacement of PREG-^3H
Procedure: Binding (affinity) is measured by the displacement of PREG-^3H.

[6] = MAP4343 in the brain after TBI (LC-MS/MS); assay type: in vivo, rat; conditions: 20 mg/kg single injection 2 h after TBI; 4 h after injection; CHI, LFP, CCI models
Procedure: FIG. 16: 3-methoxy-PREG (MAP4343) concentrations in the brain 4 h after a single injection of MAP4343 (20 mg/kg, injected 2 h after TBI or sham-surgery).
MAP4343 was dissolved in sesame oil and injected subcutaneously. Two distinct doses of MAP4343 (10 and 20 mg/kg) were tested in each model. The injection took place 2 h after trauma.
In order to establish whether TBI modifies the passage of MAP4343 into the brain, MAP4343 was measured by liquid chromatography associated to tandem mass spectrometry (LC-MS/MS) in the brain of animals sacrificed 6 h after CHI, LFP or CCI (4 h after MAP4343 single injection).
In order to establish whether TBI modifies the passage of 3-methoxy-PREG (MAP4343) into the brain, MAP4343 was measured by liquid chromatography coupled to tandem mass spectrometry LC-MS/MS in the brain of animals sacrificed 6 h after CHI, LFP or CCI (4 h after MAP4343 injection).

[7] = Pharmacokinetics, GC/MS assay in brain and spinal cord; assay type: in vivo, rat; conditions: rats, 12 mg/kg subcutaneous in sesame oil; 1, 4, 8, 24 hours
Procedure: FIG. 9: Kinetics of the appearance of 3-methoxy-PREG (43B) in rat brain and spinal cord following subcutaneous injection of 43B (12 mg/kg) in a sesame oil solution.
The pharmacokinetics of the molecules tested in vivo are evaluated using gas chromatography/mass spectrometry (GC/MS) assays.

[8] = Day 7, CCI-D1, 10 mg/kg from 24 hours post-trauma
[9] = Day 7, CCI-D2, 20 mg/kg from 24 hours post-trauma
[10] = Day 27, CCI-D1, 10 mg/kg from 24 hours post-trauma
[11] = Day 27, CCI-D2, 20 mg/kg from 24 hours post-trauma

Chain of Androgen Receptor (AR) (P15207 whole entry S389L): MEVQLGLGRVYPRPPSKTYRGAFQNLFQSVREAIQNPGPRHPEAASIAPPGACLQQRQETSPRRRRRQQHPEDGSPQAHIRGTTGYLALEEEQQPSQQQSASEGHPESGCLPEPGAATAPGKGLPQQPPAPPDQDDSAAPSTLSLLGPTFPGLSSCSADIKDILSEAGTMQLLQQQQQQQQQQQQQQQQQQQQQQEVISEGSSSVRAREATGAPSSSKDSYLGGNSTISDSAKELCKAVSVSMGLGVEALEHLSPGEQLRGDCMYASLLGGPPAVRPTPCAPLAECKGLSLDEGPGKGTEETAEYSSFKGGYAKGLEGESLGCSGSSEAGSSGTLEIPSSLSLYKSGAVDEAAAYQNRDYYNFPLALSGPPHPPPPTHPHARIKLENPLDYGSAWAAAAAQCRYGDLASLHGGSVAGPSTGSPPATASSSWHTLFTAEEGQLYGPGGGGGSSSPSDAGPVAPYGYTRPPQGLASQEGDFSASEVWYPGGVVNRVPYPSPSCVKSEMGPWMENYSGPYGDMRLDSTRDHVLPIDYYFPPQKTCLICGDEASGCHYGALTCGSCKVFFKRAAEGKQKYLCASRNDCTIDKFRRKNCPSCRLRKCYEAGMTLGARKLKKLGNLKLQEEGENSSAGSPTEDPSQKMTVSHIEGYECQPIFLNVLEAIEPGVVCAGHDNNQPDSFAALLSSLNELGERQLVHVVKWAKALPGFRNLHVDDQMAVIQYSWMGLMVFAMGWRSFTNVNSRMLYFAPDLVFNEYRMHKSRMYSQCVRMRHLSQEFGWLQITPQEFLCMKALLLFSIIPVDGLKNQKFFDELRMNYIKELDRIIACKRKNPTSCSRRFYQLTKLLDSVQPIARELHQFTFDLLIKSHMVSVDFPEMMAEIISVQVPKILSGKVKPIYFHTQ
Chain of MAP2 (P11137 whole entry): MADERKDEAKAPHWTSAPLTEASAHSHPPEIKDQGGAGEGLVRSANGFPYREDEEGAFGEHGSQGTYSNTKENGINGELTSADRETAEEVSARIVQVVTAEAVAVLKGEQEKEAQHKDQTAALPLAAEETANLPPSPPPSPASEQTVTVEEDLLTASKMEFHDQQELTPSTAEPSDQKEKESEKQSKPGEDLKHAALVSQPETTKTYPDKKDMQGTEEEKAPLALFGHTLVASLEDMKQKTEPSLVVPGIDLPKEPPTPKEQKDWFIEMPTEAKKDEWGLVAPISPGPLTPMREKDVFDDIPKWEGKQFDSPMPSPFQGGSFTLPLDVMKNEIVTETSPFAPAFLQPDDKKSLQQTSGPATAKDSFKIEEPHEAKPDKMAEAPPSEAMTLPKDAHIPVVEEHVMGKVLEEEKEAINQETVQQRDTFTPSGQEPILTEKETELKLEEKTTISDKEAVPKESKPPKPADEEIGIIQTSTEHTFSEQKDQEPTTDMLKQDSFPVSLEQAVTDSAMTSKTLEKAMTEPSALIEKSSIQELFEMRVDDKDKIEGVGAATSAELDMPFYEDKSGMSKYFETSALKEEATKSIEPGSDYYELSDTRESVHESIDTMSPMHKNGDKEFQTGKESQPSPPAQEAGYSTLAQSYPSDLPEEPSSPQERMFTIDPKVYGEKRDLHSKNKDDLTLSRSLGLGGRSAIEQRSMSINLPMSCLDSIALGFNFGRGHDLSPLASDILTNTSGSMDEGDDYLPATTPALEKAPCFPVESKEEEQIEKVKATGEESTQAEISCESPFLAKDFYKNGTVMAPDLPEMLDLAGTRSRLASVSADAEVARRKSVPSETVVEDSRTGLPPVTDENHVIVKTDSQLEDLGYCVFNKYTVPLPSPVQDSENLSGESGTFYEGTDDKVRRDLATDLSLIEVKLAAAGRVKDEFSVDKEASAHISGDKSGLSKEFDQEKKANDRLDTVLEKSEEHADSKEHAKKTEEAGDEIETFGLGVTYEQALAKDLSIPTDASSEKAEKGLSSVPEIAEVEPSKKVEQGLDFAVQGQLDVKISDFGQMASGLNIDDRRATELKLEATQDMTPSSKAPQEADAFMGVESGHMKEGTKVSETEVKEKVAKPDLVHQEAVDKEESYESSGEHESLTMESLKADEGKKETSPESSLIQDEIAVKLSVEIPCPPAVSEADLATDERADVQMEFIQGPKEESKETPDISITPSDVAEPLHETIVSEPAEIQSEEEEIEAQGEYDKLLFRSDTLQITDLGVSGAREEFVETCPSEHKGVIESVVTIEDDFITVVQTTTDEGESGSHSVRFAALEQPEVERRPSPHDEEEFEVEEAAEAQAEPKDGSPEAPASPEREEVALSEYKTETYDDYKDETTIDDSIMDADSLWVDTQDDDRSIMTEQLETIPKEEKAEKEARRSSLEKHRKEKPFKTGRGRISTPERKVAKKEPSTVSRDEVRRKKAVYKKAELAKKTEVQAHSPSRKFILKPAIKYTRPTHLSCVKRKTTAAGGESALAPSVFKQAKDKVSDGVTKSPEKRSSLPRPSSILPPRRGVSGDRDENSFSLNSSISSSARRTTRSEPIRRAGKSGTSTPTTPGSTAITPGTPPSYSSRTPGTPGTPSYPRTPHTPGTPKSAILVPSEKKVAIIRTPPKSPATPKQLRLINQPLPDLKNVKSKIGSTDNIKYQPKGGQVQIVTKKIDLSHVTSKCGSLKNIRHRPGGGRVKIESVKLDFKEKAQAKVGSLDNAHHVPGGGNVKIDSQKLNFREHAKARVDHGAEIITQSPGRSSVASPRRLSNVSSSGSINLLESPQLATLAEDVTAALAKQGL

## CO[C@H]1CC[C@@]2(C)C(=CC[C@H]3[C@@H]4CC[C@H](C(C)=O)[C@@]4(C)CC[C@@H]32)C1 [3-methoxy-PREG, 3β-methoxy-pregna-5-ene-20-one]
[1]
  spinophilin expression: increase in spinophilin expression
[2]; [8]
  Entry number in CZ, Mean: 64
  Time spent in CZ, Mean: 48
[2]; Day 7, CCI-D2, 20 mg/kg
  Time spent in CZ, Conclusion vs. CCI-D0: ↑
[2]; [9]
  Entry number in CZ, Mean: 73
  Time spent in CZ, Mean: 66
[2]; [10]
  Entry number in CZ, Mean: 79
  Time spent in CZ, Mean: 86
[2]; Day 27, CCI-D2, 20 mg/kg
  Entry number in CZ, Conclusion vs. CCI-D0: ↑ ↑
  Time spent in CZ, Conclusion vs. CCI-D0: ↑
[2]; [11]
  Entry number in CZ, Mean: 114
  Time spent in CZ, Mean: 95
[2]; as early as day 7, in particular at 20 mg/kg (D2)
  anxiety induced by CCI trauma: alleviated
[3]
  PSD95 expression: increase in PSD95 expression
[4]
  % inhibition of specific binding: < 25%
[5]
  Affinity (index of binding): 100% of PREG
[6]
  MAP4343 concentrations in the brain: concentrations of MAP4343 of significant therapeutic interest reach the brain
[7]
  penetration into spinal cord and brain: penetrates rapidly into the spinal cord and the brain
